Laboratory results published in patent US10058584B2, “Methods of improving behavioral therapies” (Emory University, priority 2010, dated 2018).

Experiments:
female voles = settings: OT administered; without mating 24 hrs or more needed; cited from earlier work
female prairie voles = assay: Partner preference test immediately after 6 hour cohabitation (experiment 1); assay type: in vivo, prairie vole; settings: intraperitoneal, tested immediately after cohabitation, FIG. 1
Description: Social bonding in prairie voles is a complex social cognitive process, which involves the synthesis of social motivation, social information process and social learning. Bonding can be efficiently assayed in the laboratory using a partner preference paradigm (Ahern, 2009). The formation of a partner preference in female prairie voles is dependent on OT (Williams, 1994). In the absence of mating, 24 hrs of cohabitation is typically needed for the development of a partner preference. However, OT administration accelerates partner preference formation to 6 hrs or less. […] Melanotan I (MTI) and Melanotan II (MTII), synthetic α-MSH analogues, which act on melanocortin ¾ receptors, and busprione (BUS), a 5-HT1a receptor partial agonist, We administered to female prairie voles and assessed partner preference. […]
Female prairie voles were injected intraperitoneally with either Melanotan II (1.10 mg/kg; Sigma Aldrich, St. Louis, Mo.), buspirone (8, 30 mg/kg; Sigma Aldrich, St. Louis, Mo.) or a saline control in a dissolved in a volume of 0.1 ml 0.1% sterile saline. […] The pairs were cohabitated for six hours and video recorded to monitor for sexual behavior. […] The videos were analyzed afterwards for mating attempts and animals that mated were excluded from the study. […] The time the subject spent in side by side contact with no joint motion was scored using the CleverSys Behavioral Analysis System. […]

Row | SMILES | cohabitation period to partner preference formation (female voles) [h] | time spent with the partner male vs. the stranger male (partner preference) (female prairie voles; high dose) | time spent with the partner male vs. the stranger male (partner preference) (female prairie voles; low dose)
1 | CC[C@H](C)[C@@H]1NC(=O)[C@H](Cc2ccc(O)cc2)NC(=O)[C@@H](N)CSSC[C@@H](C(=O)N2CCC[C@H]2C(=O)N[C@@H](CC(C)C)C(=O)NCC(N)=O)NC(=O)[C@H](CC(N)=O)NC(=O)[C@H](CCC(N)=O)NC1=O [OT, Oxytocin] | ≤ 6 |  | 
2 | O=C1CC2(CCCC2)CC(=O)N1CCCCN1CCN(c2ncccn2)CC1 [BUS, buspirone] |  | failed to spend significantly more time with either stimulus animal | spent significantly more time with the partner male vs. the stranger male
